# Measurements published in patent publication US7838025B2, “Products and methods for maintaining or increasing ceramide levels in skin” (Kimberly-Clark Worldwide, Inc., priority 2002, dated 2010).
# Key:
# [1] = tested on: ceramidase (infant fecal extract); assay: CAST Ceramidase Activity Screening Test; format: biochemical; conditions: relative to positive control, above 1 enhancer, below 1 inhibitor, C5 ceramide substrate, 18 hours, 25° C., PBS pH=7.4
# Description: Agents, such as botanical extracts and related compounds, for example, are tested for their ability to decrease the activity of ceramidase in a ceramidase/ceramide system. A decrease in the activity of ceramidase results in an increase in the level of ceramides. The Ceramidase Activity Screening Test is completed as follows:
# Step 1: Preparation of Testing Solution Comprising Ceramidase (Fecal Extract), Agent, and Ceramide: Combine the following to prepare a 100 microliter test solution: (1) 10 microliters of agent where the agent is an aqueous solution or oil (if the agent is a powder solid, prepare 10 microliters of a 0.1 microgram/milliliter solution by dissolving the appropriate amount of powder or solid in Phosphate Buffered Saline, pH=7.4); (2) 10 microliters of infant fecal extract in Phosphate Buffered Saline, pH=7.4 prepared by extracting 1 gram of infant feces in 9 mL of Phosphate Buffered Saline, pH=7.4, and vortexing the extraction for about 2 minutes followed by centrifugation to remove any solids; (3) 10 microliters of 250 microgram/milliliter C5 ceramide in Phosphate Buffered Saline, pH=7.4; and (4) 70 microliters of Phosphate Buffered Saline, pH=7.4.
# Step 2: Preparation of Control Testing Solution Comprising Ceramidase and Ceramide: Combine the following to prepare a 100 microliter test solution: (1) 10 microliters of infant fecal extract in Phosphate Buffered Saline, pH=7.4; (2) 10 microliters of 250 microgram/milliliter BIODIPY FL C5 ceramide (Molecular Probes, Eugene, Wash.) in Phosphate Buffered Saline, pH=7.4; and (3) 80 microliters of Phosphate Buffered Saline, pH=7.4. […]
# Step 3: Illuminate each plate with a 364 nanometer light source and take pictures with a suitable camera, such as a digital Kodak DC 40. The digital image is transferred as a TIFF file to the Alpha Innotech Flourchem Plate Imaging System and analyzed as described above with similar positive (substrate and ceramidase) and negative (substrate and no enzyme) controls. […]
# [2] = biological target: T1, sphingomyelinase (Bacillus cereus, UniProt P11889); assay: SAST Sphingomyelinase Activity Screening Test; format: biochemical; conditions: test band brightness divided by average of positive controls; above 1 enhancer, below 1 inhibitor; BODIPY FL C5-Sphingomyelin substrate, 30 minutes, 25° C., PBS pH=7.4
# T1 construct: purchased Sigma Chemical, St. Louis, Mo; S7651
# T1 sequence (P11889 28-333): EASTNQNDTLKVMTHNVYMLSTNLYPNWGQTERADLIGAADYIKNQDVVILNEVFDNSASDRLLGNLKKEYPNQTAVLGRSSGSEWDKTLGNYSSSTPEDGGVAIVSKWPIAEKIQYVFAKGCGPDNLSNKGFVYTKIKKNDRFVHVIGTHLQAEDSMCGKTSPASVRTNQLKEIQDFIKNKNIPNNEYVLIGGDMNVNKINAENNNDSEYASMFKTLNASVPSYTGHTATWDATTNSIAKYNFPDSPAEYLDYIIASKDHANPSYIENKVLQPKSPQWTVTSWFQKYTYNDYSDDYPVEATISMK
# Description: Agents, such as botanical extracts and related compounds, for example, are tested for their ability to increase the activity of sphingomyelinase in a sphingomyelinase/sphingomyelin-containing system. An increase in the activity of sphingomyelinase results in an increase in the hydrolysis of sphingomyelin and an increased production of ceramide. The Sphingomyelinase Activity Screening Test to determine the efficacy of an agent is completed as follows:
# Step 1: Preparation of Testing Solution Comprising Sphingomyelinase, Sphingomyelin, and Agent: Combine the following to prepare a 100 microliter test solution: (1) 10 microliters of agent (such as a botanical extract, for example) where the agent is an aqueous solution or oil (if the agent is a powder or solid, prepare 10 microliters of a 0.1 microgram/milliliter solution by dissolving the appropriate amount of powder or solid in Phosphate Buffered Saline, pH=7.4); (2) 10 microliters of a 0.1 microgram/milliliter sphingomyelinase (Catalogue No. S7651, Sigma Chemical, St. Louis, Mo. (or equivalent)) in Phosphate Buffered Saline, pH=7.4, solution; (3) 10 microliters of a 250 microgram/milliliter BODIPY FL C5-Sphingomyelin (Molecular Probes, Eugene, Oreg. (or equivalent)) in Phosphate Buffered Saline, pH=7.4, solution; and (4) 70 microliters of Phosphate Buffered Saline, pH=7.4.
# Step 2: Preparation of Control Testing Solution Comprising Sphingomyelinase and Sphingomyelin: Combine the following to prepare a 100 microliter test solution: (1) 10 microliters of a 0.1 microgram/milliliter sphingomyelinase in Phosphate Buffered Saline, pH=7.4, solution; (2) 10 microliters of a 250 microgram/milliliter BODIPY FL C5-Sphingomyelin in Phosphate Buffered Saline, pH=7.4, solution; and (3) 80 microliters of Phosphate Buffered Saline, pH=7.4. […]
Molecule,Effect on Ceramidase Activity [1],Effect on Sphingomyelinase Activity [2] [Times Activity]
CC(=O)Oc1c(C)c(C)c2c(c1C)CC[C@@](C)(CCC[C@H](C)CCC[C@H](C)CCCC(C)C)O2 [D1-alpha-Tocophenyl Acetate],≧1 Times Activity,0.6
Potassium Laureth Phosphate,No Effect,0.1
Sunflower Seedaminopropyl Morpholine Lactate,No Effect,0.1
